Series [1] can be described thus: Cytotoxicity assay (neutral red), WM9S cells. Format: cell-based. Conditions: human, WM9S melanoma cells; read-out: sPAH-IC50 (cytotoxicity of sPAH alone). The procedure:
(§1) Human melanoma cell lines A375 and MeWo were purchased from ATCC, and cultured in DMEM medium supplemented with 10% fetal bovine serum and penicillin/streptomycin (Invitrogen) at 37 °C in a 5% CO2/95% water-saturated air atmosphere. Melanoma cell lines SKMEL 28, SKMEL V3, WM9S, and WM9R were provided by Robert Ballotti (C3M, Nice, France). MeWo-dxrR cells were obtained by adding increasing concentrations of doxorubicin, up to 0.2 µM, in the culture medium over 6 months. These cells were grown in medium supplemented with 0.2 µM dxr. WM9R cells were obtained by adding increasing concentrations of vemurafenib, up to 5 µM, in the culture medium over 6 months. These cells were grown in medium supplemented with 5 µM vemurafenib. HEK cells were grown in 75 mm tissue culture dishes (Falcon, Franklin Lakes, NJ, USA) in Dulbecco’s modified Eagle’s medium (Gibco, Life Technologies, Saint Aubin, France) supplemented with 10% fetal calf serum (Hyclone, Thermo Fisher Scientific GMBH, Ulm, Germany) and 1% penicillin/streptomycin (Gibco, Life Technologies, Saint Aubin, France) in a humidified incubator at 37 °C (5% CO2).
(§2) Cells were seeded in 96-well plates in triplicate and grown in medium to achieve 70 to 80% confluence. […] Measurements were made in microplate readers (Multiskan Go Microplate Spectrophotometer from Thermo Scientific).

Another series concerns WM9S cells. Put plainly: Cytotoxicity assay (neutral red), WM9S cells. It counts as cell-based. Conditions: WM9S; 24 h; sPAH between 10 and 20 µM. How it is done: as §1, §2
Series [2] is described as follows: Cytotoxicity assay (neutral red), MeWo cells. Format: cell-based, human. Conditions: human, MeWo melanoma cells, MeWo; 24 or 48 h; read-out: sPAH-IC50 (cytotoxicity of sPAH alone). How it is done: as §1
(§3) Cells were seeded in 96-well plates in triplicate and grown in medium to achieve 70 to 80% confluence. Medium was then removed and replaced with 100 µL/well of complete medium containing PAH or DMSO as a control. After 2 h, 100 µL of complete medium containing serial dilutions of dxr, cisplatin or vemurafenib were added. Plates were incubated at 37 °C and 5% CO2. After 24 or 48 h, cells were incubated for 3 h at 37 °C with 100 µL/well neutral red (NR) solution (50 µg/mL in medium) following the manufacturer’s protocol. Measurements were made in microplate readers (Multiskan Go Microplate Spectrophotometer from Thermo Scientific).

A further series has as its system MeWo cells. Put plainly: Cytotoxicity assay (neutral red), MeWo cells. Format: cell-based, human. The procedure:
as §1, §3

The subject of series [3] is A375 cells. Put plainly: BODIPY-cholesterol efflux measurement, A375 cells. It counts as cell-based, human. As to conditions: sPAH in efflux buffer, 30 min.
A short description of series [4]: Cytotoxicity assay (neutral red), A375 cells. Format: cell-based, human. Conditions: human, A375 melanoma cells, A375; 24 or 48 h; read-out: sPAH-IC50 (cytotoxicity of sPAH alone). The procedure: as §1, §3
The test system of series [5] is A375 cells. Briefly: Cytotoxicity assay (neutral red), A375 cells. It counts as cell-based, human. Conditions: A375. The procedure:
as §1, §3

Series [6] is described as follows: Metabolic stability with mice liver microsomes and NADPH. It counts as in vitro ADME. The procedure: A 10 µL aliquot of the sPAH stock solution (10 mM in DMSO) was diluted in 990 µL of a mixture of acetonitrile and water. This solution was then diluted 100-fold in phosphate buffer containing mice liver microsomes (0.5 mg/mL), 1 mM NADPH, and 3 mM MgCl2, and incubated at 37 °C. After 2, 10, 20, 40, and 60 min, 70 µL aliquots were collected and mixed with 70 µL acetonitrile at 0 °C. Equivalent experiments were performed without NADPH in order to identify chemical instability or enzymatic process not depending on NADPH, and with testosterone as a positive control. The enzymatic reaction was stopped by addition of acetonitrile. Samples were analyzed by LC–MS/MS on an UHPLC LC–MS 8030 (Shimazu, Kyoto, Japan).
For metabolite identification, 50 µM of sPAH were incubated with mice liver microsomes and NADPH. Two samples were prepared: one in which acetonitrile was added immediately (t0) and one in which acetonitrile was added after 30 min. After centrifugation for 5 min at 15,000× g, 2 samples of each supernatant were analyzed by LC–MS/MS on a LC–MS 8030 (Shimazu, Kyoto, Japan) and detected by selected ion monitoring (SIM).

The structures appear in SMILES notation. Read-outs that look alike come from different tables or passages of the source.

In the case of `COc1cc(C)c(CC/C(C)=C/Cc2cc(O)ccc2O)c(C)c1C` [sPAH, Panicein A hydroquinone], the IC50 in series [1] is 28.6 ± 5.1 µM; in series [2], 36 ± 2.3 µM; in the series on MeWo cells (MeWo cells, 2 µM Dxr present, listed as Synthetic PAH, read-out: IC50 of PAH at 2 µM Dxr), 8.1 ± 1.3 µM; in the series with MeWo cells (MeWo, 24 or 48 h, read-out: sPAH-IC50 (cytotoxicity of sPAH alone)), about 40 µM; in series [4] it was about 40 µM; in the series with A375 cells [5] (24 or 48 h, read-out: sPAH-IC50 (cytotoxicity of sPAH alone)), 38.3 ± 6.8 µM. For the same molecule, the “sensitivity of cells to vemurafenib in the presence of sPAH” value in the series with WM9S cells is listed as “significantly increased”; in the series with A375 cells [5] (24 h, sPAH between 10 and 20 µM) it was “significantly increased”. Moreover, the “IC50 of cisplatin in the presence of sPAH” value is reported as “significantly decreased” with MeWo cells (MeWo, sPAH 20 µM vs DMSO (Figure S2)) and “significantly decreased” with A375 cells [5] (sPAH 20 µM vs DMSO (Figure S2)). In addition, the “efflux of BODIPY-cholesterol” value in the series on A375 cells [3] is recorded as “inhibited the efflux of cholesterol”. Also, the “metabolic fate (LC-MS/MS)” value in series [6] (50 µM, mice liver microsomes and NADPH, 30 min) is “rapidly oxidized in its quinone form”. In addition, the half-life at 1 µM in series [6] (mouse, liver microsomes, mice microsomes and NADPH, 37 °C) is 1 min.
